Reference: PubChem BioAssay (NCI)
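Following 48 hours of exposure in 96-well plates, responses at five concentrations were used to interpolate endpoints linearly. TGI: total growth inhibition.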

Tests used:
Assay in all cases: NCI anticancer screen, dose series, 48 h
SF-539 CNS = system: SF-539 CNS
NCI-H522 lung = system: NCI-H522 lung
HL-60(TB) leukemia = system: HL-60(TB) leukemia
M14 melanoma = system: M14 melanoma
HCT-15 colon = system: HCT-15 colon
IGROV1 ovarian = system: IGROV1 ovarian
OVCAR-3 ovarian = system: OVCAR-3 ovarian
UACC-62 melanoma = system: UACC-62 melanoma
OVCAR-8 ovarian = system: OVCAR-8 ovarian
OVCAR-4 ovarian = system: OVCAR-4 ovarian
ACHN renal = system: ACHN renal
HT29 colon = system: HT29 colon
PC-3 prostate = system: PC-3 prostate
NCI-H23 lung = system: NCI-H23 lung
SR leukemia = system: SR leukemia
HS 578T breast = system: HS 578T breast
SK-OV-3 ovarian = system: SK-OV-3 ovarian
SN12C renal = system: SN12C renal
A549 NSCLC = system: A549 NSCLC
SK-MEL-2 melanoma = system: SK-MEL-2 melanoma
CAKI-1 renal = system: CAKI-1 renal
HCT-116 colon = system: HCT-116 colon
UO-31 renal = system: UO-31 renal
SF-268 CNS = system: SF-268 CNS
UACC-257 melanoma = system: UACC-257 melanoma
LOX IMVI melanoma = system: LOX IMVI melanoma
U251 CNS = system: U251 CNS
MDA-MB-231 breast = system: MDA-MB-231 breast
MDA-N = system: MDA-N
COLO 205 colon = system: COLO 205 colon
HOP-62 NSCLC = system: HOP-62 NSCLC
EKVX NSCLC = system: EKVX NSCLC
SK-MEL-28 melanoma = system: SK-MEL-28 melanoma
T-47D breast = system: T-47D breast
A498 renal = system: A498 renal
SF-295 CNS = system: SF-295 CNS
HOP-92 NSCLC = system: HOP-92 NSCLC
TK-10 renal = system: TK-10 renal
BT-549 breast = system: BT-549 breast
SNB-75 CNS = system: SNB-75 CNS
SK-MEL-5 melanoma = system: SK-MEL-5 melanoma
NCI-H226 lung = system: NCI-H226 lung
MALME-3M melanoma = system: MALME-3M melanoma
DU-145 prostate = system: DU-145 prostate
MOLT-4 leukemia = system: MOLT-4 leukemia
RXF 393 renal = system: RXF 393 renal
K-562 leukemia = system: K-562 leukemia
OVCAR-5 ovarian = system: OVCAR-5 ovarian
RPMI-8226 leukemia = system: RPMI-8226 leukemia
CCRF-CEM leukemia = system: CCRF-CEM leukemia
SNB-19 CNS = system: SNB-19 CNS
MCF7 breast = system: MCF7 breast
786-0 renal = system: 786-0 renal
NCI/ADR-RES ovarian = system: NCI/ADR-RES ovarian
MDA-MB-435 = system: MDA-MB-435
NCI-H460 lung = system: NCI-H460 lung
SW-620 colon = system: SW-620 colon
HCC-2998 colon = system: HCC-2998 colon
KM12 colon = system: KM12 colon

Measured: TGI

O=C1/C(=C\Oc2ccc(F)cc2)N2CCC1CC2
36.7 µM: DU-145 prostate
63.1 µM: SR leukemia
not listed: NCI-H460 lung | SW-620 colon | HCC-2998 colon | KM12 colon
> 100 µM: all other assays above

CC(C)C1=CC(=O)C(C)(C2C(O)CC3(C)C4CC=C5C(CCC(OC6OC(CO)C(O)C(O)C6OC6OC(C)C(O)C(O)C6O)C5(C)C)C4(C)C(=O)CC23C)O1 (centres undefined)
not listed: HL-60(TB) leukemia | SR leukemia | SK-MEL-2 melanoma | LOX IMVI melanoma | TK-10 renal
> 100 µM: all other assays above
